This passage reports Activity and viability results from ChEMBL document CHEMBL5614396, “Structure-Activity Relationship Studies in Benzothiadiazoles as Novel Vaccine Adjuvants” (J Med Chem, 2024).

For series [1], the system named is BMDC. Kind of series: Vaccine adjuvant activity in Balb/c mouse BMDC assessed as induction of Ca2+ influx at 10 uM by Fura-2/8-AM dye based fluorescence analysis (reference value: 0%). The class given is functional.
Series [2] relates to BMDC. Kind of series: Vaccine adjuvant activity in Balb/c mouse BMDC assessed as increase in IL-12 production at 10 uM incubated for 20 hrs by ELISA (reference value: 1.35 +/-0.1 ng/ml). The class given is functional.
The test system of another series is THP-1. Kind of series: Vaccine adjuvant activity in human THP-1 cells expressing CD63-Turbo-luciferase and CD9-Emerald green fluorescent protein reporter assessed as extracellular vesicle release by measuring reporter activation at 10 uM incubated for 48 hrs by TurboLuc luciferase based chemiluminescence assay (reference value: 0%). The class given is functional.

Series [3] can be described thus: Cytotoxicity against Balb/c mouse BMDC assessed as cell viability at 10 uM incubated for 20 hrs by MTT assay (reference value: 100 +/-0.6%). The note with it: BMDC (bone marrow-derived dendritic cells), read-out: Activity. The class given is toxicity, cell-based. In general terms: Tetrazolium assays rely on reduction of a dye to a coloured formazan, in cell work by metabolically active cells.

With `CCOC(=O)c1c(NS(=O)(=O)c2ccc(Br)c3nsnc23)sc(C)c1C`, the Activity in the series on BMDC [1] was 73.6%; in the series on BMDC [2], 1.9 ng/mL; with THP-1 it was 70.3%. Also, in series [3], the viability at 20 h, 10 µM came to 96.3%.
For `CCOC(=O)c1c(NS(=O)(=O)c2cccc3cccnc23)sc(C)c1C`, the figures for the Activity with BMDC [1], with BMDC [2] and in the series with THP-1 were 99.7%, 2 ng/mL and 60.4%, respectively. Further, in series [3], the viability at 20 h, 10 µM was 110%.
With `CCNC(=O)c1c(NS(=O)(=O)c2cccc3nsnc23)sc(C)c1C`, the Activity is -28.3% with BMDC [1], 1.7 ng/mL in the series with BMDC [2] and -0.6% in the series with THP-1. For the same compound, the viability at 20 h, 10 µM in series [3] was 100%.
Take `Cc1sc(NS(=O)(=O)c2cccc3nsnc23)c(C(=O)OCCCCCNC(=O)OC(C)(C)C)c1C`: the Activity in the series with BMDC [1] was 103.9%; in the series with BMDC [2], 4.14 ng/mL; with THP-1, 111.5%. In series [3], the viability at 20 h, 10 µM came to 183%.
With `CCOC(=O)c1cc(C)ccc1NS(=O)(=O)c1cccc2nsnc12`, the Activity in the series with BMDC [1] was -11.5%; in the series on BMDC [2] it was 1.22 ng/mL; in the series on THP-1 it was 10.8%. Besides, in series [3], the viability at 20 h, 10 µM worked out at 60.1%.
In the case of `CCOC(=O)c1c(NS(=O)(=O)c2cccc3nsnc23)sc(-c2ccccn2)c1C`, the Activity stood at 8.1% in the series with BMDC [1], 1.01 ng/mL in the series on BMDC [2] and 30.5% in the series on THP-1. For the same compound, the viability at 20 h, 10 µM in series [3] was found to be 68.1%.
For the compound `CCOC(=O)c1c(NS(=O)(=O)c2cccc3nsnc23)sc2c1CCN(C(=O)OC(C)(C)C)C2`, the Activity in the series with BMDC [1] was determined as 79.2%; in the series on BMDC [2], 2.27 ng/mL; in the series on THP-1, 100.4%. In addition, the viability at 20 h, 10 µM in series [3] worked out at 104%.
Consider `CCOC(=O)c1c(NS(=O)(=O)c2cccc3nsnc23)sc(-c2ccoc2)c1C`, for which the results for the Activity in the series with BMDC [1], with BMDC [2] and with THP-1 were 94.7%, 1.18 ng/mL and 114.4%, respectively. In series [3], the viability at 20 h, 10 µM was 82.8%.
For `CCOC(=O)c1c(C)csc1NS(=O)(=O)c1cccc2nsnc12`, the Activity in the series on BMDC [1] turned out to be 76.7%; with BMDC [2], 1.12 ng/mL; with THP-1 it was 99%. In addition, the viability at 20 h, 10 µM in series [3] worked out at 100%.
Regarding `CCOC(=O)c1c(NS(=O)(=O)c2cccc3nn[nH]c23)sc(C)c1C`, the results for the Activity with BMDC [1], in the series on BMDC [2] and with THP-1 were -9.6%, 2.11 ng/mL and -0.7%, respectively. In series [3], the viability at 20 h, 10 µM was 102%.
For `CCOC(=O)c1c(NS(=O)(=O)c2cccc3nc[nH]c23)sc(C)c1C` the same measures were -14.2%, 1.51 ng/mL, 2% and 111%.
Take `CCOC(=O)c1c(NS(=O)(=O)c2cccc3nsnc23)sc(-c2cccs2)c1C`: the figures for the Activity in the series with BMDC [1], in the series on BMDC [2] and with THP-1 were 100.6%, 1.03 ng/mL and 17.9%, respectively. Further, the viability at 20 h, 10 µM in series [3] was 77%.
As for `CCc1noc(-c2c(NS(=O)(=O)c3cccc4nsnc34)sc(C)c2C)n1`, the results for the Activity in the series on BMDC [1], with BMDC [2] and in the series with THP-1 were -3.1%, 1.71 ng/mL and 0.4%, respectively. Also, the viability at 20 h, 10 µM in series [3] was 65.9%.
Regarding `CCOC(=O)c1c(C)cccc1NS(=O)(=O)c1cccc2nsnc12`, the Activity is -14.2% with BMDC [1], 1.14 ng/mL in the series on BMDC [2] and 1% with THP-1. Besides, the viability at 20 h, 10 µM in series [3] worked out at 88.8%.
Regarding `Cc1sc(NS(=O)(=O)c2cccc3nsnc23)c(C(=O)OC(C)(C)C)c1C`, the Activity worked out at 136.7% in the series with BMDC [1], 3.17 ng/mL in the series with BMDC [2] and 128.8% with THP-1. Also, in series [3], the viability at 20 h, 10 µM came to 118%.
The corresponding values for `CCOC(=O)c1c(NS(=O)(=O)c2cccc3nsnc23)sc(-c2ccco2)c1C` are 134.2%, 2.56 ng/mL, 67.1% and 98.7%.
